Measured values reported in PMC7730235, “Discovery of a Novel Class of Covalent Dual Inhibitors Targeting the Protein Kinases BMX and BTK” (International Journal of Molecular Sciences, 2020).

Legend:
BMX = biological target: T1, BMX (Homo sapiens, UniProt P51813); experiment: Radiometric kinase assay (Reaction Biology HotSpot); assay type: biochemical; settings: [ATP] = 10 μM; for remaining activity at 0.2 µM: 200 nM compound, duplicate mean, read-out: Residual Activity @ 200 nM, BMX; for IC50: radiometric HotSpot, five-dose singlicate
T1 construct: purchased Reaction Biology Corporation
T1 sequence (P51813 1-675): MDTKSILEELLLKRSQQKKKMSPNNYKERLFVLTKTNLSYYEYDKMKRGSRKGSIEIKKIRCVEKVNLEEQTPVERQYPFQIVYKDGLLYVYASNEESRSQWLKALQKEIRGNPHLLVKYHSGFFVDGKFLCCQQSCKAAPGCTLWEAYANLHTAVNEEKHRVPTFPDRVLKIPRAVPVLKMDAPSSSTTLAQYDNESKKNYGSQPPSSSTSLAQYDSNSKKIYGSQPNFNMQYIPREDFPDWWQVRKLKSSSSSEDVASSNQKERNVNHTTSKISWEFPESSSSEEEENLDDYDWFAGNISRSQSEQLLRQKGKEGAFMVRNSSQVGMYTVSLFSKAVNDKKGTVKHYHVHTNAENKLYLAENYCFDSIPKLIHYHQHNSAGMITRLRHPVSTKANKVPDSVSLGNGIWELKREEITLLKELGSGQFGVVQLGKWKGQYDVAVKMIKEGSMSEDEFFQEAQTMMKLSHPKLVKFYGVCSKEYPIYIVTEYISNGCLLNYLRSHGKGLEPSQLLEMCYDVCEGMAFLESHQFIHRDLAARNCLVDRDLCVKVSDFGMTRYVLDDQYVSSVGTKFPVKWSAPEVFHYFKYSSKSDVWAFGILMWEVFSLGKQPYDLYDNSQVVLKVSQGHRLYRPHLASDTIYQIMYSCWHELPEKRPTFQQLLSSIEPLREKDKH
Protocol: (§1) If not mentioned differently, in vitro profiling of compounds was performed at Reaction Biology Corporation using the HotSpot™ assay platform.

EGFR = biological target: T2, EGFR (Homo sapiens, UniProt P00533); experiment: as above; assay type: biochemical; settings: [ATP] = 10 μM; for remaining activity at 0.2 µM: 200 nM compound, duplicate mean, read-out: Residual Activity @ 200 nM, EGFR; for IC50: radiometric HotSpot, five-dose singlicate
T2 construct: purchased Reaction Biology Corporation
Protocol: as §1

BTK = biological target: T3, BTK (Homo sapiens, UniProt Q06187); experiment: as above; assay type: biochemical; settings: [ATP] = 10 μM; for remaining activity at 0.2 µM: read-out: Residual Activity @ 200 nM, BTK
T3 construct: purchased Reaction Biology Corporation
Protocol: as §1

BLK = biological target: T4, BLK (Homo sapiens, UniProt P51451); experiment: as above; assay type: biochemical; settings: [ATP] = 10 μM; for remaining activity at 0.2 µM: 200 nM compound, duplicate mean, read-out: Residual Activity @ 200 nM, BLK
T4 construct: purchased Reaction Biology Corporation
Protocol: as §1

[1] = biological target: T5, Full length BTK (C-terminal NanoLuc fusion) (Homo sapiens, UniProt Q06187); experiment: Cellular NanoBRET target engagement assay in HEK293T cells; assay type: cell-based; settings: 0.5 µM Tracer K5, 2 h incubation
T5 construct: Full length BMX and BTK was cloned into pFC32K; expressed in transfected cells; host or cells: HEK293T
Protocol: (§2) Full length BMX and BTK was cloned into pFC32K (Promega, Madison, WI, USA) for expression of a C-terminal NanoLuc fusion. The plasmids were transfected into HEK293T cells cultured in DMEM (Gibco, Waltham, MA, USA) supplemented with 10% fetal bovine serum (Gibco, Waltham, MA, USA) and Penicillin/Streptamycin (Gibco, Waltham, MA, USA). NanoBRET assays were performed using the protocol published previously. Briefly, after transfection and 20 h incubation cells were harvested and subsequently resuspended in OptiMEM (Gibco, Waltham, MA, USA). Cells were aliquoted onto […] (Greiner, Kremsmünster, Austria), and inhibitors as well as 0.5 µM Tracer K4 (Promega) for BMX or 0.5 µM Tracer K5 (Promega, Madison, WI, USA) for BTK were added using an ECHO acoustic dispenser. The plates were incubated at 37 °C with 5% CO2 for 2 h prior to the addition of both NanoBRET NanoGlo substrate (Promega, Madison, WI, USA) and extracellular NanoLuc inhibitor. BRET luminescence (450 nm for donor emission and 610 nm for BRET signal) was measured using PHERAstar FSX plate reader (BMG Labtech, Ortenberg, Germany). Milli-BRET units (mBU) were calculated as a ratio between BRET signal and the overall measured luminescence. A dose–response fitting was applied and IC50 values were calculated using the Prism software. […] Experiments were performed as tripicates and repeated at least three times.

[2] = biological target: T6, Full length BMX (C-terminal NanoLuc fusion) (Homo sapiens, UniProt P51813); experiment: as above; assay type: cell-based; settings: 0.5 µM Tracer K4, 2 h incubation
T6 construct: Full length BMX and BTK was cloned into pFC32K; expressed in transfected cells; host or cells: HEK293T
T6 sequence (P51813 1-675): T1 sequence (P51813 1-675)
Protocol: as §2

kinase domain of BMX = biological target: T7, kinase domain of BMX (Homo sapiens, UniProt P51813); experiment: Mass spectrometric investigation of covalent binding to BMX (ESI-TOF); settings: 4 °C; for BMX covalent adduct fraction, 30 min / BMX covalent adduct fraction, 60 min / BMX covalent adduct fraction, 120 min / BMX covalent adduct fraction, 240 min / native (unmodified) BMX fraction, 30 min / native (unmodified) BMX fraction, 60 min / native (unmodified) BMX fraction, 120 min / native (unmodified) BMX fraction, 240 min: 1.5-fold molar excess of inhibitor; for covalent labeling of BMX (in words): complete labeling refers to 30 min
T7 construct: The kinase domains of JAK3 and BMX at 2 μM
Protocol: The kinase domain of BMX was diluted to 0.05 mM with buffer containing 20 mM Tris pH 8.0, 200 mM NaCl, 0.5 mM TCEP (pH 7.0) and was subsequently mixed with 0.075 mM inhibitors (ratio of protein to inhibitor of 1:1.5). The mixture was incubated at 4°C. The samples were taken at different time points, the reaction stopped by diluting the sample with a 200-fold excess of 1% formic acid. The denatured protein and the adducts were assessed using electrospray time-of-flight (ESI-TOF) mass spectrometry.

[3] = 200 nM compound, duplicate mean
[4] = radiometric HotSpot, five-dose singlicate

T2 sequence (P00533 25-1210): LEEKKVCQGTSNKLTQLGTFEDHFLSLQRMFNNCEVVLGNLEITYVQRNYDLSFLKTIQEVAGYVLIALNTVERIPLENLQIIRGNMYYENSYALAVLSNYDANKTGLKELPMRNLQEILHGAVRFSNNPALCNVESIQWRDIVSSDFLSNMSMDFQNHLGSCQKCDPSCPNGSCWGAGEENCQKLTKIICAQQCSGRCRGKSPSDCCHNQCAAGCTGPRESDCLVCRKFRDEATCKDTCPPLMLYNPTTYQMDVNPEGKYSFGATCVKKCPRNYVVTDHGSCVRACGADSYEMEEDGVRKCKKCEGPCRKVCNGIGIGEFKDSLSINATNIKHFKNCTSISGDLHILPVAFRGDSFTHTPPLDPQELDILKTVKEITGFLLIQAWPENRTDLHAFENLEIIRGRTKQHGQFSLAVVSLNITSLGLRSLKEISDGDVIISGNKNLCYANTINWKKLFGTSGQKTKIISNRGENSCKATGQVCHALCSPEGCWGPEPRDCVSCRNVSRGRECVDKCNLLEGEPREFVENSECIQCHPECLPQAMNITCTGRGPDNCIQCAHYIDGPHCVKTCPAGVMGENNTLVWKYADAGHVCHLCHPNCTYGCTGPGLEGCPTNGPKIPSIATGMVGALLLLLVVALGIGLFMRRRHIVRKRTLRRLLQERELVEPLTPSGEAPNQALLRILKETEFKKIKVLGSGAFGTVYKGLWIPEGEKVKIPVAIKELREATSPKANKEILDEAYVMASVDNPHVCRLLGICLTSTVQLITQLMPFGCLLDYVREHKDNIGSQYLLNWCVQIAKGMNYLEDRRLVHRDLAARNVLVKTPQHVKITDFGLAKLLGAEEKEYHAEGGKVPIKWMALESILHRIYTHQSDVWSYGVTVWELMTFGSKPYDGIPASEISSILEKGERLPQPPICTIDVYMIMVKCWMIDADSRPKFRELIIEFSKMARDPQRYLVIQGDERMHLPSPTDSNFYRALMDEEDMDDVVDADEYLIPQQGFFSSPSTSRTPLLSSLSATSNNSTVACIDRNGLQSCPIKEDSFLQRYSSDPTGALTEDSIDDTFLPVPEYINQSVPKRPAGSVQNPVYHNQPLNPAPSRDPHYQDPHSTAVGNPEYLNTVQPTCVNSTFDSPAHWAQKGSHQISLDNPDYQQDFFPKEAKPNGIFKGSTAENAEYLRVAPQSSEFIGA
T5 sequence (Q06187 whole entry, the tested form may be a part): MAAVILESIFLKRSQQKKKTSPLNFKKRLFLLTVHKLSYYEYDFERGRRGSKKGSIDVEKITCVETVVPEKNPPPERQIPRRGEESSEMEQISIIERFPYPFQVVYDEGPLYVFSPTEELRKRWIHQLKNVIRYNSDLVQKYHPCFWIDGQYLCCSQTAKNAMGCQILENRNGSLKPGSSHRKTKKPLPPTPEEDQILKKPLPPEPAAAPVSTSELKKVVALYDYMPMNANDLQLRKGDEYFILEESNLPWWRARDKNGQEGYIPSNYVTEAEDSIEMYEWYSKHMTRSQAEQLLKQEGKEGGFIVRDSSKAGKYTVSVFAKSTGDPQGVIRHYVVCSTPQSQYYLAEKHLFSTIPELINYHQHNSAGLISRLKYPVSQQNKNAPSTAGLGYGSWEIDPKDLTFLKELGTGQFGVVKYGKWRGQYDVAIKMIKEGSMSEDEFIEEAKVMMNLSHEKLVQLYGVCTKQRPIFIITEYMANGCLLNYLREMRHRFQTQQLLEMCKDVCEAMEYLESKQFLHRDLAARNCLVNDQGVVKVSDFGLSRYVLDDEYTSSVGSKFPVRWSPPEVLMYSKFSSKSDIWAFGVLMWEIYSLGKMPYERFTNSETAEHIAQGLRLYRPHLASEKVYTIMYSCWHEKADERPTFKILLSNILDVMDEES
T3 sequence (Q06187 whole entry): as the sequence (Q06187 whole entry, the tested form may be a part) above
T4 sequence (P51451 whole entry): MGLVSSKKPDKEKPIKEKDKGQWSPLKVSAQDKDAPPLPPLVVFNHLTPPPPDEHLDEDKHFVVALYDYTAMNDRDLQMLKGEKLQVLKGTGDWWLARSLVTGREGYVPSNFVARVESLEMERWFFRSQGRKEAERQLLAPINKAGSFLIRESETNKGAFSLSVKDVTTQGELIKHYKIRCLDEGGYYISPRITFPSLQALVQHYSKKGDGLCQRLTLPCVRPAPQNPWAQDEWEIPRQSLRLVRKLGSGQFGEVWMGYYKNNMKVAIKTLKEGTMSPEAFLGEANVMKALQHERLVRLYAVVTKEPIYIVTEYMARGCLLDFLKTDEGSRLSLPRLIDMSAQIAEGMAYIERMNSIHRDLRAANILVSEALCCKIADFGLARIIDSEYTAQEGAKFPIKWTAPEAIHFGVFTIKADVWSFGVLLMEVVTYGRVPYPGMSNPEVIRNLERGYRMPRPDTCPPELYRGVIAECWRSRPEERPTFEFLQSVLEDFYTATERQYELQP

| SMILES | remaining activity at 0.2 µM (BMX) [%] | remaining activity at 0.2 µM (EGFR) [%] | IC50 (EGFR) [nM] | remaining activity at 0.2 µM (BTK; [3]) [%] | remaining activity at 0.2 µM (BLK) [%] | IC50 [1] [nM] | IC50 [2] [nM] | BMX covalent adduct fraction, 30 min (kinase domain of BMX) [%] | BMX covalent adduct fraction, 60 min (kinase domain of BMX) [%] | BMX covalent adduct fraction, 120 min (kinase domain of BMX) [%] | BMX covalent adduct fraction, 240 min (kinase domain of BMX) [%] | covalent labeling of BMX (in words) (kinase domain of BMX; 1.5-fold molar excess) | IC50 (BMX) [nM] | native (unmodified) BMX fraction, 30 min (kinase domain of BMX) [%] | native (unmodified) BMX fraction, 60 min (kinase domain of BMX) [%] | native (unmodified) BMX fraction, 120 min (kinase domain of BMX) [%] | native (unmodified) BMX fraction, 240 min (kinase domain of BMX) [%] | further results |
| --- | --- | --- | --- | --- | --- | --- | --- | --- | --- | --- | --- | --- | --- | --- | --- | --- | --- | --- |
| C=CC(=O)Nc1cccc(-c2c[nH]c3ncccc23)c1 [Compound 9a, N-(3-(1H-pyrrolo[2,3-b]pyridin-3-yl)phenyl)acrylamide] | 2.7 | > 100 | 5250 | 18.2 | 95.8 | 15 ± 2 | 26 ± 11 | 100 | 100 | 100 | 100 | complete labeling | – | – | – | – | – | – |
| C=CC(=O)Nc1cccc(-c2c[nH]c3ncc(C(N)=O)cc23)c1 [Compound 10a, 3-(3-acrylamidophenyl)-1H-pyrrolo[2,3-b]pyridine-5-carboxamide] | 1.6 | 95.5 | > 10000 | 18.9 | 82.4 | 283 ± 24 | 765 ± 283 | 99 | 100 | 100 | 100 | complete labeling | 29 | – | – | – | – | – |
| C=CC(=O)Nc1cccc(-c2c[nH]c3ncc(C(=O)NC4CCCC4)cc23)c1 [Compound 11a, 3-(3-acrylamidophenyl)-N-cyclopentyl-1H-pyrrolo[2,3-b]pyridine-5-carboxamide] | – | – | – | – | – | 2070 ± 32 | 6070 ± 1830 | 60 | 67 | 89 | 97 | – | 539 | 40 | 33 | 11 | 3 | exposure required to approach full target modification (kinase domain of BMX; 1.5-fold molar excess): 240 min |
| CCC(=O)Nc1cccc(-c2c[nH]c3ncc(NC(=O)C4CCCC4)cc23)c1 [Compound 12b, N-(3-(3-propionamidophenyl)-1H-pyrrolo[2,3-b]pyridin-5-yl)cyclopentanecarboxamide] | – | > 100 | – | 70 | 95.1 | 8210 ± 3460 | > 10000 | – | – | – | – | no modification was detectable | 582 | 100 | 100 | 100 | 100 | Residual Activity @ 200 nM, BTK (BTK; [3]): 69.7% |
| C=CC(=O)Nc1cccc(-c2c[nH]c3ncc(NC(=O)c4cccs4)cc23)c1 [Compound 12c, N-(3-(3-acrylamidophenyl)-1H-pyrrolo[2,3-b]pyridin-5-yl)thiophene-2-carboxamide] | – | 14.9 | 12 | 0.8 | 8.6 | 9 ± 1 | 3 ± 1 | 100 | 100 | 100 | 100 | complete labeling | – | – | – | – | – | IC50 (BTK; [4]): < 1 nM; IC50 (BLK; [4]): 30 nM |
